Data reported in patent US5496847A, “Aminomethyl-benzodioxane and benzopyran serotonergic agents” (Bristol-Myers Squibb Co., priority 1995, dated 1996).
pIC50: −log10 of the molar value. Where a name gives a salt, the structure may show the parent alone.

The molecules below were run against T1, 5-HT1A receptor (assay: In vitro binding to the 5-HT1A receptor (method of Peroutka, Brain Research 344, 167 (1985), minor modifications)). Details: in vitro binding to 5-HT1A receptor; class symbols.
T1 construct: from tissue
Protocol: In vitro IC50 test values for binding to the 5-HT1A receptor were determined for representative compounds of Formula I by the method of S. J. Peroutka, Brain Research 344, 167 (1985); with only minor modifications. Test IC50 values lower than 100 nM are considered to reflect activity at the 5-HT1A receptor.

T1 sequence (F6Q2H9 1-422): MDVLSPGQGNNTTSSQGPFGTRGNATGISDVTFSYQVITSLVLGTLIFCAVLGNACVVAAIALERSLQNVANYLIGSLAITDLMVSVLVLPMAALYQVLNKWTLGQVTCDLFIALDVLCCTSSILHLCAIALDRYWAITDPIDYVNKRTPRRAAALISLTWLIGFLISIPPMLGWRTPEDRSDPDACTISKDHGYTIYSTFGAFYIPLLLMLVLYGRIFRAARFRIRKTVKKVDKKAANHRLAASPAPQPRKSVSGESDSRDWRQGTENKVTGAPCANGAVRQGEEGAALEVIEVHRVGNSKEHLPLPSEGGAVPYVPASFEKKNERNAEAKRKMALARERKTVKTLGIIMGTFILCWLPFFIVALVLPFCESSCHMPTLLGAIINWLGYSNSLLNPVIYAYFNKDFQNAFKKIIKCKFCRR

With `CCN(CC1COc2ccccc2O1)C1CCC(O)(c2ccc3c(c2)OCO3)CC1` (mixture of isomers) [Example 7, (±)-Cis-N-Ethyl-N,[4-(1,3-benzodioxol-5-yl)-4-hydroxycyclohexyl]-1,4-benzodioxane-2-methanamine fumarate] as the molecule, how does the pIC50 read?
Its pIC50 is 7.60 to 8.30.

With `COC1(c2ccc3c(c2)OCO3)CCC(N(C)CC2COc3ccccc3O2)CC1` (mixture of isomers) [Example 8, (±) -Cis-N-Methyl-N-[4-(1,3-benzodioxol-5-yl)-4-methoxycyclohexyl]-1,4,-benzodioxane-2-methanamine fumarate] as the molecule, how does the pIC50 read?
Its pIC50 is 7.60 to 8.30.

`COC1(c2ccc3c(c2)OCCO3)CCC(NCC2COc3ccccc3O2)CC1` (racemic) [Example 4, (±)-Cis-N-[4-(1,4-benzodioxan-6-yl)-4-methoxycyclohexyl]-1,4-benzodioxane-2-methanamine hemifumarate] was tested. Which pIC50 did it give?
The pIC50 was 8.30 to 9.00.

With `CCOC1(c2ccc3c(c2)OCO3)CCC(NCC2COc3ccccc3O2)CC1` (racemic) [Example 5, (±)-Cis-N-[4-(1,3-benzodioxol-5-yl)-4-ethoxycyclohexyl]-1,4-benzodioxane-2-methanamine fumarate] as the molecule, how does the pIC50 read?
The pIC50 was 8.30 to 9.00.

`COC1(c2ccc3c(c2)OCO3)CCC(NCC2COc3ccccc3O2)CC1` (racemic) [Example 6, (±)-Cis-N-[4-(1,3-Benzodioxol-5-yl)-4-methoxycyclohexyl]-1,4-benzodioxane-2-methanamine hemifumarate] was tested. Which pIC50 did it give?
The pIC50 was 8.30 to 9.00.

How did the pIC50 turn out when `COC1(c2ccc3c(c2)OCO3)CCC(NCC2COc3ccccc3O2)CC1` (racemic) [Example 10, (±)-Trans-N-[4-(1,3-benzodioxol-5-yl)-4-methoxycyclohexyl]-1,4-benzodioxane-2-methanamine hemifumarate] was run?
The pIC50 was 7.60 to 8.30.

With `OC1(c2ccc3c(c2)OCO3)CCC(NCC2CCc3ccccc3O2)CC1` (racemic) [Example 11, (±)-Cis-4-[[(3,4-dihydro-2H-1-benzopyran-2-yl)methyl]amino]-1-(1,3-benzodioxol-5-yl)cyclohexanol] as the molecule, how does the pIC50 read?
Its pIC50 is over 9.00.

With `OC1(c2ccc(F)c(F)c2)CCC(NCC2COc3ccccc3O2)CC1` (racemic) [Example 13, (±)-Cis-4-[(1,4-Benzodioxan-2-yl)methylamino]-1-(3,4-difluorophenyl)cyclohexanol] as the molecule, how does the pIC50 read?
The pIC50 was over 9.00.

With `COC1(c2ccc3c(c2)OCO3)CCC(NCC2COc3ccccc3O2)CC1` (single isomer, unassigned; (-)) [Example 9] as the molecule, how does the pIC50 read?
Its pIC50 is over 9.00.

With `OC1(c2ccc3c(c2)OCO3)CCC(NCC2COc3ccccc3O2)CC1` (stereo not drawn) [Example 1, Cis-4-[(2S-1,4-Benzodioxan-2-yl)methylamino]-1-(1,3-benzodioxol-5-yl)cyclohexanol] as the molecule, how does the pIC50 read?
Its pIC50 is over 9.00.

`COC1(c2ccc3c(c2)OCO3)CCC(NCC2COc3ccccc3O2)CC1` (stereo not drawn) [Example 2, Cis-N-[4-(1,3-Benzodioxol-5-yl)-4-methoxycyclohexyl]-2S-1,4-benzodioxane-2-methanamine hemifumarate] was tested. Which pIC50 did it give?
Its pIC50 is over 9.00.

`C1=C(c2ccc3c(c2)OCO3)CCC(NC[C@H]2COc3ccccc3O2)C1` (stereo partly drawn) [Example 12, N-[4-(1,3-Benzodioxol-5-yl)-3-cyclohexen-1-yl]-2S-1,4-benzodioxane-2-methanamine] was tested. Which pIC50 did it give?
Its pIC50 is 7.60 to 8.30.
